Assay results reported in the supplement of paper PMC5770543.
± gives the standard deviation.

Experiments:
[1] = system: Toxoplasma gondii RH tachyzoites; experiment: % growth inhibition vs DMSO (48 h luciferase); higher = more inhibition; conditions: 10 µM
[2] = system: Toxoplasma gondii RH tachyzoites; experiment: plaque count per well; higher = less inhibition; extreme values may be limits of the assay; conditions: 10 µM; 8-10 days
How it was run: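 The per-well plaque count reflects delayed-death inhibition of parasite growth. Each well of a six-well plate with a confluent HFF monolayer, preseeded with compound at 10 µM, was given fifty T. gondii RH tachyzoites. Plates sat undisturbed for 8 to 10 days before methanol fixation and crystal violet staining. Plaques were then imaged and counted per well with ImageJ, alongside untreated wells and wells treated with 1% DMSO.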

[3] = system: Toxoplasma gondii RH tachyzoites; experiment: median egress time after A23187 ionophore; higher = stronger egress inhibition; conditions: 10 µM; pretreatment time: 24 h
Procedure: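 T. gondii RH tachyzoites expressing firefly luciferase were grown in HFF monolayers for 48 h with compound. % growth inhibition at 10 µM and EC50 (2-fold dilutions from 10 µM) were read by luminescence relative to 1% DMSO; EC50 listed as 10 (not determined, <80% inhibition) is left out. Plaque assays: 50 tachyzoites per well with 10 µM compound for 8-10 days, giving plaque count and area by crystal violet/ImageJ. Egress: median time to egress after 1 µM A23187 ionophore following 24 h of 10 µM compound (DMSO ~1.8 min; >10 = no egress within 10 min).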

[4] = system: Plasmodium falciparum 3D7; experiment: EC50 growth inhibition (60 h, SYBR Green); conditions: stage: ring-stage start
[5] = system: Plasmodium falciparum 3D7; experiment: % inhibition of schizont-to-ring transition vs DMSO; higher = more inhibition
How it was run: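 Tightly synchronised P. falciparum schizonts (about 40–42 hours post-invasion, 1% parasitemia, 2.5% hematocrit, AlbuMAX-supplemented RPMI) were exposed to compound at 1, 3 or 10 µM, with vehicle and positive controls. Cells were glutaraldehyde-fixed, Triton-permeabilised, stained with Hoechst 33342 and counted by flow cytometry (at least 100,000 events). Schizont-to-ring transition inhibition is new ring formation relative to vehicle controls, averaged over three experiments.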

[6] = system: Plasmodium falciparum KH004-003 (artemisinin resistant); experiment: R50 (50% reduction of ring formation, egress/invasion); higher = less potent
Procedure: (§1)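 P. falciparum asexual blood stages. EC50: sorbitol-synchronized 3D7 rings were treated with 2-fold dilutions from 10 µM for 60 h, with parasitemia read by SYBR Green I fluorescence; EC50 listed as 10 means not determined and is left out. Stage transition screen: ~40-42 hpi schizonts were treated at 1, 3 and 10 µM; new rings were counted by Hoechst flow cytometry and % inhibition is relative to DMSO controls (mean of 3 experiments). R50: concentration giving 50% reduction of new ring formation versus DMSO in 3D7, K1 and KH004-003, from flow cytometry after 12-20 h treatment of schizonts.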

[7] = system: Plasmodium falciparum K1 (chloroquine resistant); experiment: as above
Procedure: as §1

[8] = system: Plasmodium falciparum 3D7; experiment: as above
Procedure: as §1

[9] = molecular target: Toxoplasma gondii RH tachyzoites; experiment: EC50 growth inhibition (48 h luciferase)
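Throughout, for % growth inhibition vs DMSO (48 h luciferase): tested in triplicate wells of 96-well plates on confluent HFF monolayers, with 1% DMSO wells as negative control in four replicates.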

Cc1c(C)n(CC(O)CNC2CCCCC2C)c2ccccc12 (stereo not given)
% growth inhibition [1]: < 0%
plaque count per well [2]: 23
median egress time [3]: 3.07 min
EC50 growth inhibition [4]: 2.18 µM
% inhibition of schizont-to-ring transition ([5]; 1 µM): 14.4%
% inhibition of schizont-to-ring transition ([5]; 3 µM): 32.3%
% inhibition of schizont-to-ring transition ([5]; 10 µM): 64.2%

CCOc1cc(Cl)c(C(C)NC(=O)c2ccccc2)cc1OCC (stereo not given)
% growth inhibition [1]: < 0%
plaque count per well [2]: 22
median egress time [3]: 2.67 min
EC50 growth inhibition [4]: 1.45 µM
% inhibition of schizont-to-ring transition ([5]; 1 µM): 46.5%
% inhibition of schizont-to-ring transition ([5]; 3 µM): 78.6%
% inhibition of schizont-to-ring transition ([5]; 10 µM): 76.7%

Oc1ccc(-c2nc(-c3ccc4oc5ccc(-c6[nH]c(-c7ccc(O)cc7)nc6-c6ccccc6)cc5c4c3)c(-c3ccccc3)[nH]2)cc1
% growth inhibition [1]: < 0%
plaque count per well [2]: 11
median egress time [3]: 1.47 min
EC50 growth inhibition [4]: 1.89 µM
% inhibition of schizont-to-ring transition ([5]; 1 µM): 8.13%
% inhibition of schizont-to-ring transition ([5]; 3 µM): 15.7%
% inhibition of schizont-to-ring transition ([5]; 10 µM): 48.8%

COc1ccc2sc(N(Cc3cccnc3)C(=O)c3ccc(C#N)cc3)nc2c1
% growth inhibition [1]: < 0%
plaque count per well [2]: 21
median egress time [3]: > 10 min
EC50 growth inhibition [4]: 6.59 µM
% inhibition of schizont-to-ring transition ([5]; 1 µM): 35.3%
% inhibition of schizont-to-ring transition ([5]; 3 µM): 39.1%
% inhibition of schizont-to-ring transition ([5]; 10 µM): 51.7%

CCCC(c1nnnn1C1CCCCC1)N1CCN(C(=O)c2ccco2)CC1 (stereo not given)
% growth inhibition [1]: 9.52 ± 8.7%
plaque count per well [2]: 24
median egress time [3]: 2.4 min
EC50 growth inhibition [4]: 1.47 µM
% inhibition of schizont-to-ring transition ([5]; 1 µM): 9.2%
% inhibition of schizont-to-ring transition ([5]; 3 µM): 14.6%
% inhibition of schizont-to-ring transition ([5]; 10 µM): 32.1%

O=C(NC1CCN(Cc2ccccc2)CC1)c1cc(-c2cccnc2)nc2ccc(Cl)cc12
% growth inhibition [1]: 19.7 ± 17%
plaque count per well [2]: 34
median egress time [3]: 2.67 min
EC50 growth inhibition [4]: 2.56 µM
% inhibition of schizont-to-ring transition ([5]; 1 µM): 13.5%
% inhibition of schizont-to-ring transition ([5]; 3 µM): 17.4%
% inhibition of schizont-to-ring transition ([5]; 10 µM): 37.7%

Cc1cc(C)c2c(c1)OCN(Cc1ccccc1Cl)C2
% growth inhibition [1]: 4.95 ± 8.6%
plaque count per well [2]: 27
median egress time [3]: 2 min
EC50 growth inhibition [4]: 3.62 µM
% inhibition of schizont-to-ring transition ([5]; 1 µM): < 0%
% inhibition of schizont-to-ring transition ([5]; 3 µM): 17.9%
% inhibition of schizont-to-ring transition ([5]; 10 µM): 59.9%

CN1CCN(c2ccc(Nc3c4ccccc4nc4ccccc34)cc2)CC1
R50 [6]: 0.883 µM
R50 [7]: 1.94 µM
R50 [8]: 1.39 µM
% growth inhibition [1]: 100 ± 0.36%
EC50 growth inhibition [4]: 0.0599 µM
% inhibition of schizont-to-ring transition ([5]; 1 µM): 68.6%
% inhibition of schizont-to-ring transition ([5]; 3 µM): 75.5%
% inhibition of schizont-to-ring transition ([5]; 10 µM): 77.1%
EC50 growth inhibition [9]: 2.32 µM

COc1ccccc1C(=O)ON=C(N)Cc1cccc2ccccc12
R50 [6]: 1.25 µM
R50 [7]: 3.93 µM
R50 [8]: 3.9 µM
% growth inhibition [1]: 73.6 ± 2.5%
EC50 growth inhibition [4]: 0.244 µM
% inhibition of schizont-to-ring transition ([5]; 1 µM): 12%
% inhibition of schizont-to-ring transition ([5]; 3 µM): 43.7%
% inhibition of schizont-to-ring transition ([5]; 10 µM): 78.8%

COc1cc(-c2nc(-c3ccccc3)c(-c3ccccc3)[nH]2)cc(OC)c1O
% growth inhibition [1]: 6.6 ± 11%
plaque count per well [2]: 22
median egress time [3]: 2.93 min
EC50 growth inhibition [4]: 8.62 µM
% inhibition of schizont-to-ring transition ([5]; 1 µM): 13.7%
% inhibition of schizont-to-ring transition ([5]; 3 µM): 15.2%
% inhibition of schizont-to-ring transition ([5]; 10 µM): 37.4%

Cn1c(C(=O)c2cccc3ccccc23)nc2ccccc21
% growth inhibition [1]: 9.52 ± 8.7%
plaque count per well [2]: 24
median egress time [3]: 2.4 min
EC50 growth inhibition [4]: 0.147 µM
% inhibition of schizont-to-ring transition ([5]; 1 µM): 53%
% inhibition of schizont-to-ring transition ([5]; 3 µM): 65.5%
% inhibition of schizont-to-ring transition ([5]; 10 µM): 70.2%
